Test results reported in patent publication US8071345B2, “Stabilized subtilisin composition” (Novozymes A/S, priority 2006, dated 2011).
pKi: −log10 of the molar value.

Molecular target: T1, Savinase (Lederbergia lenta, UniProt P29600)
T1 construct: Novozymes A/S
T1 sequence (P29600 1-269): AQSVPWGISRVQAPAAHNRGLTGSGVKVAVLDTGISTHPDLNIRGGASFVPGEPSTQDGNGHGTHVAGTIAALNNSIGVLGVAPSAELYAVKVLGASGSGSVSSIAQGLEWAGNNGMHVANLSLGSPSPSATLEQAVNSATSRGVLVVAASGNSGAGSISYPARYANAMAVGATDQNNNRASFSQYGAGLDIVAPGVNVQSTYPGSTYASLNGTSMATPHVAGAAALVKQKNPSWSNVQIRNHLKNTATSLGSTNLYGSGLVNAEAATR
Assay: biochemical
Conditions: not given
Experimental: The inhibition constant KI=[E][I]/[EI] for the inhibition of Savinase was determined using standard methods under the following conditions:
Substrate: Succinyl-Alanine-Alanine-Proline-para-nitro-anilide=SAAPFpNA (Sigma S-7388).
Buffer: 0.1 M phosphate buffer pH 7.5
Enzyme concentration in assay≈1×10^−8 M
The initial rate of substrate hydrolysis was determined with and without inhibitor at nine substrate concentrations in the range of 0.01 mM to 2 mM using an automated spectrophotometer.
The inhibition constant KI was determined using Sigma Plot 9.0, Enzyme Kinetics Module 1.1

Row | SMILES | pKi
1 | Nc1ccccc1C(=O)O [2-aminobenzoic acid] | 1.80
2 | O=C(O)Cc1ccccc1Cl [2-chlorophenylacetic acid] | 1.96
3 | O=Cc1ccc(O)c(O)c1 [3,4-dihydrozybenzaldehyde] | 1.96
4 | O=C(O)c1cccc(Cl)c1 [3-chlorobenzoic acid] | 2.40
5 | O=C(O)Cc1cccc(Cl)c1 [3-chlorophenylacetic acid] | 2.15
6 | O=C(O)c1ccccc1 [Benzoic Acid] | 1.66
7 | O=C(O)Cc1ccccc1 [Phenylacetic acid] | 2.00

Same assay, conditions: Example 1; 0.1 M phosphate buffer pH 7.5, 25° C., substrate SAAPFpNA 0.01-2 mM, enzyme ≈1×10^−8 M; read-out: Ki

Row | SMILES | pKi
8 | O=C(O)c1cc(Cl)cc(Cl)c1 [3,5-dichorobenzoic acid] | 2.70
9 | O=Cc1ccc(C(=O)O)cc1 [4-formylbenzoic acid] | 1.60
10 | O=C(O)CCc1ccccc1 [Phenylpropionic acid] | 2.05
11 | O=C(O)c1ccc(C(=O)O)cc1 [Terephtalic acid (4-carboxybenzoic acid)] | 1.00

Same assay, conditions: Example 2, acids; 0.1 M phosphate buffer pH 7.5, 25° C., substrate SAAPFpNA 0.01-2 mM, enzyme ≈1×10^−8 M; read-out: Ki

Row | SMILES | pKi
12 | O=C(O)c1ccccc1Cl [2-chlorobenzoic acid] | 1.80
13 | O=C(O)c1cc(O)cc(O)c1 [3,5-dihydroxybenzoic acid] | 1.12
14 | O=C(O)CCc1cccc(Cl)c1 [3-(3-chlorophenyl)propionic acid] | 2.30
15 | O=C(O)CCc1ccc(Cl)cc1 [3-(4-chlorophenyl)propionic acid] | 2.00
16 | O=C(O)c1cccc(CCl)c1 [3-(chloromethyl)benzoic acid] | 1.49
17 | Nc1cccc(C(=O)O)c1 [3-aminobenzoic acid] | 1.37
18 | O=C(O)c1cccc(Br)c1 [3-bromobenzoic acid] | 2.22
19 | O=C(O)c1cccc(F)c1 [3-fluorobenzoic acid] | 1.77
20 | O=Cc1cccc(C(=O)O)c1 [3-formylbenzoic acid] | 1.57
21 | O=C(O)c1cccc(O)c1 [3-hydroxybenzoic acid] | 1.54
22 | O=C(O)c1cccc(I)c1 [3-iodobenzoic acid] | 2.05
23 | O=C(O)c1cccc([N+](=O)[O-])c1 [3-nitrobenzoic acid] | 2.05
24 | Nc1ccc(C(=O)O)cc1 [4-aminobenzoic acid] | 1.09
25 | O=C(O)Cc1ccc(Cl)cc1 [4-chlorophenylacetic acid] | 1.96
26 | O=C(O)CCCc1ccccc1 [4-phenylbutyric acid] | 1.72

Same assay, conditions: Example 3, aldehydes; 0.1 M phosphate buffer pH 7.5, 25° C., substrate SAAPFpNA 0.01-2 mM, enzyme ≈1×10^−8 M; read-out: Ki

Row | SMILES | pKi
27 | O=Cc1cccc(O)c1 [3-hydroxybenzaldehyde] | 1.80

Molecular target: subtilisin (Bacillus licheniformis, UniProt P00780)
Assay: not given
Conditions: Keller et al, Biochem. Biophys. Res. Com. 176, 1991; cited from earlier work

Chain of subtilisin (P00780 106-379): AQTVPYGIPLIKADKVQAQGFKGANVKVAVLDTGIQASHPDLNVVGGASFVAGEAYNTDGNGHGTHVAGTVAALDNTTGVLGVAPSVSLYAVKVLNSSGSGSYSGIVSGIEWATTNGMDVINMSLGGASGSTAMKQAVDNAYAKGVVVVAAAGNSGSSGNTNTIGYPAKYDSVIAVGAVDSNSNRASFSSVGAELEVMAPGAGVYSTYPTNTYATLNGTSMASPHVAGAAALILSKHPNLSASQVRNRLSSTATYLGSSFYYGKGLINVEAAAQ

Row | SMILES | capacity as subtilisin inhibitor
28 | OB(O)c1cc(Cl)cc(Cl)c1 [3,5-dichlorophenylboronic acid] | particularly effective
29 | CB(O)O [methylboronic acid] | poorest inhibitor

Tested on: proteolytic enzymes
Assay: not given
Conditions: as claimed in WO 92/19707; cited from earlier work

Row | SMILES | inhibitor of proteolytic enzymes
30 | CC(=O)Nc1cccc(B(O)O)c1 [acetamidophenyl boronic acid] | superior inhibitor
